Data reported in paper PMC2363969, “gp100/pmel17 and tyrosinase encode multiple epitopes recognized by Th1-type CD4+T cells” (British Journal of Cancer, 2001).
Where two headings read alike, the source gives them in different places. Where a SMILES comes first, the peptide text is derived from it. Where no end group is shown, it is not given here.

Columns and labels:
HLA-DRB1*0401 = HLA-DRB1*0401 (Homo sapiens, UniProt P01903+P01911, A100K/A169T/F76Y/I96L/K127E/L162R/M171V/N62H/P40V/Q125Y/R42H/S133A/S149N/S66Y/V115G/V209L/W38E); test: solid-state competitive-binding assay, purified HLA-DR4
CD4+ T cells [1] = test: IFN-γ ELISPOT, normal donor CD4+ T cells after in vitro stimulation with peptide-pulsed autologous DC; type: cell-based, human; settings: for T cell responses evaluated in ND-IVS (of 10): number of responding normal donors: normal HLA-DR4+ donors, n = 10, after 2 rounds of in vitro stimulation with autologous DC pulsed with peptide, IFN-γ ELISPOT
CD4+ T cells [2] = test: IFN-γ ELISPOT, freshly-isolated peripheral blood CD4+ T cells vs peptide-pulsed T2.DR4; type: cell-based, human; settings: positive if above normal donor mean + 3 S.D.; for T cell responses evaluated in MEL (of 5): number of responding patients: HLA-DR4+ melanoma patients with active disease, n = 5, 20 h IFN-γ ELISPOT; for T cell responses evaluated in MEL-NED (of 11): number of responding patients: HLA-DR4+ melanoma patients with no evidence of disease, n = 11, 20 h IFN-γ ELISPOT
HLA-DRB1*0404 = HLA-DRB1*0404 (Homo sapiens, UniProt P01903+P01911, A100R/A169T/F76Y/I96L/K127E/L162R/M171V/N62H/P40V/Q125Y/R42H/S133A/S149N/S66Y/V209L/W38E); test: solid-state competitive-binding assay, purified HLA-DR4
[3] = read-out: Binding affinity (IC50) DRB1*0401
[4] = read-out: Binding affinity (IC50) DRB1*0404

Molecule	IC50 (HLA-DRB1*0401; [3]) [µM]	T cell responses evaluated in ND-IVS (of 10): number of responding normal donors (CD4+ T cells [1])	T cell responses evaluated in MEL (of 5): number of responding patients (CD4+ T cells [2])	T cell responses evaluated in MEL-NED (of 11): number of responding patients (CD4+ T cells [2])	further results
CC[C@H](C)[C@H](NC(=O)[C@H](CCC(N)=O)NC(=O)[C@H](Cc1c[nH]cn1)NC(=O)[C@H](CC(C)C)NC(=O)[C@@H](NC(=O)[C@H](CC(C)C)NC(=O)[C@H](CCC(N)=O)NC(=O)[C@H](CS)NC(=O)[C@H](C)NC(=O)[C@@H]1CCCN1C(=O)[C@H](CO)NC(=O)[C@@H]1CCCN1C(=O)[C@H](CC(C)C)NC(=O)[C@@H](NC(=O)[C@@H]1CCCN1C(=O)[C@H](CCC(N)=O)NC(=O)[C@H](CS)NC(=O)[C@@H](N)CC(C)C)C(C)C)C(C)C)C(=O)N[C@@H](CC(C)C)C(=O)N[C@@H](CCCCN)C(=O)NCC(=O)NCC(=O)O [gp100/pmel17540-561] (H-LCQPVLPSPACQLVLHQILKGG-OH)	> 10				
CC(C)[C@H](NC(=O)[C@H](CO)NC(=O)[C@@H]1CCCN1C(=O)[C@@H](N)Cc1c[nH]c2ccccc12)C(=O)N[C@@H](Cc1ccccc1)C(=O)N[C@@H](Cc1ccc(O)cc1)C(=O)N[C@@H](CC(N)=O)C(=O)N[C@@H](CCCNC(=N)N)C(=O)N[C@H](C(=O)N[C@@H](CS)C(=O)N[C@@H](CCC(N)=O)C(=O)N[C@@H](CS)C(=O)N[C@@H](CO)C(=O)NCC(=O)N[C@@H](CC(N)=O)C(=O)N[C@@H](Cc1ccccc1)C(=O)O)[C@@H](C)O [tyrosinase80-95] (H-WPSVFYNRTCQCSGNF-OH; N-terminus and C-terminus assumed)		0 donors (of 10)	0 patients (of 5)	0 patients (of 11)	
ALHIYMDGTMSQVQGSA [tyrosinase365-381D]					IC50 (HLA-DRB1*0404): 31 nM; IC50 (HLA-DRB1*0401): 0.017 µM
IVGILLVLMAVVLASLIYRRR [gp100599-619 /pmel17606-626]	> 10	0 donors (of 10)	0 patients (of 5)	0 patients (of 11)	IC50 (HLA-DRB1*0404; [4]): > 10000 nM
KRCLLHLAVIGALLAVGATKV [gp100/pmel176-26]	> 10				
PGPVTAQVVLQAAIPLTSCGSS [gp100/pmel17283-304]					IC50 (HLA-DRB1*0404; [4]): 51 nM
VSGLSIGTGRAMLGTHTMEVTVY [gp100/pmel17167-189]	> 10				
VYVWKTWGQYWQVLGGPVS [gp100/pmel17150-168]		0 donors (of 10)	0 patients (of 5)	0 patients (of 11)	IC50 (HLA-DRB1*0404): > 10000 nM; IC50 (HLA-DRB1*0401): > 10 µM
WMHYYVSMDALLGGSEI [tyrosinase178-194, synthetic peptide derived from tyrosinase]		3 donors (of 10)	1 patients (of 5)	1 patients (of 11)	immunogen grade on an arbitrary scale (CD4+ T cells [1]; in both melanoma patients and in vitro stimulated normal donors, weak / moderate / strong): moderate
